Results taken from patent publication US9657009B2, “Heteroaryl substituted pyridyl compounds useful as kinase modulators” (BRISTOL-MYERS SQUIBB COMPANY, priority 2012, dated 2017).
Where two headings read alike, the source gives them in different places.

Legend:
IRAK4 = IRAK4 (Homo sapiens (Human), UniProt Q9NWZ3); assay: IRAK4 Inhibition Assay; type: biochemical
Protocol: IRAK4 Inhibition Assay The assays were performed in U-bottom 384-well plates. […] The reaction was initiated by the combination of IRAK4 with substrates and test compounds. The reaction mixture was incubated at room temperature for 60 min. and terminated by adding 45 μL of 35 mM EDTA to each sample.

[1] = test system: TLR2 induced IL-6 in peripheral blood mononuclear cells (PBMCs); assay: PBMC TLR2 Induced IL-6 Assay; type: cell-based; conditions: lipoteichoic acid 10 μg/ml, IL-6 by ELISA; for IC50: values without asterisk, read-out: Cell IC50
Protocol: PBMC TLR2 Induced IL-6 Assay Peripheral blood mononuclear cells (PBMCs) were isolated from human blood containing the anti-coagulant EDTA (2.5 mM) by centrifugation over a FICOLL® gradient. […] At the end of the culture, plates were centrifuged at 1800 rpm for 10 minutes to pellet the cells. Supernatants were harvested and analyzed for IL-6 levels by ELISA (BD Biosciences, San Jose, Calif.).

[2] = ATP 500 μM; IRAK4 0.6 nM; 60 min at room temperature; read-out: IRAK4 IC50
[3] = human PBMCs, 5 hours, values marked * are EC50, read-out: Cell EC50 (*EC50)

Chain of IRAK4 (Q9NWZ3 whole entry, species assumed): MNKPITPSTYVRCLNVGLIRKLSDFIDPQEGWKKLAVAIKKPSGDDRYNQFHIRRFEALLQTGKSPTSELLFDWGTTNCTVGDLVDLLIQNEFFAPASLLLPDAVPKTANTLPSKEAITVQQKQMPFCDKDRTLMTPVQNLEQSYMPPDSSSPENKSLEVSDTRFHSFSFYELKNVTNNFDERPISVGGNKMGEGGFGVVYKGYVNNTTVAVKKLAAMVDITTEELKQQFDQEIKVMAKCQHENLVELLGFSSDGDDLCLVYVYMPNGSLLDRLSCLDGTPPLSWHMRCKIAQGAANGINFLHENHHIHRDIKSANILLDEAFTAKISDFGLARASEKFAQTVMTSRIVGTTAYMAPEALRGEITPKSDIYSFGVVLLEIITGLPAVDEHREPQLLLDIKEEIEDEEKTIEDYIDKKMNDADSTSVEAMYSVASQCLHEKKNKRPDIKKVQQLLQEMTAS

| IC50 (IRAK4; [2]) [nM] | SMILES | IC50 ([1]; human PBMCs, 5 hours) [nM] | EC50 [1, 3] [nM] | IC50 (IRAK4; read-out: IRAK4 IC50; ATP 500 μM; IRAK4 0.6 nM; 60 min at room temperature) [nM] | EC50 ([1]; Homo sapiens, PBMC, 5 h, values marked * are EC50, read-out: Cell EC50 (*EC50)) [nM] |
| --- | --- | --- | --- | --- | --- |
| 5.9 | CC(C)(O)[C@H](F)CNC(=O)c1cnc(Nc2ncc(C#N)cn2)cc1N[C@H]1CCC[C@@H]1F [Example 54] | 126 | – | – | – |
| 5 | CC(C)(O)[C@H](F)CNC(=O)c1cnc(Nc2ncc(C#N)cn2)cc1N[C@H]1CCC[C@@H]1F [Example 55] | 27 | – | – | – |
| 1.8 | CC(C)(O)[C@H](F)CNC(=O)c1cnc(Nc2ncc(C#N)cc2Cl)cc1NC1CCC(F)C1 (stereo partly shown) [Example 57] | – | 68 | – | – |
| 1.7 | CC(C)(O)[C@H](F)CNC(=O)c1cnc(Nc2ncc(C#N)cc2Cl)cc1NC1CCC(F)C1 (stereo partly shown) [Example 62] | – | 52 | – | – |
| 3.2 | CC(C)(O)[C@H](F)CNC(=O)c1cnc(Nc2ncc(C#N)cc2Cl)cc1NC1CCCC1F (stereo partly shown) [Example 70] | – | 91 | – | – |
| 2.8 | CC(C)(O)[C@H](F)CNC(=O)c1cnc(Nc2ncc(C#N)cc2Cl)cc1NC1CCCC1F (stereo partly shown) [Example 71] | – | 394 | – | – |
| 1.5 | CC(C)(O)[C@H](F)CNC(=O)c1cnc(Nc2ncc(C#N)cc2Cl)cc1NC1CCCC1F (stereo partly shown) [Example 73] | – | 132 | – | – |
| 2.7 | CC(C)(O)[C@H](F)CNC(=O)c1cnc(Nc2ncc(C#N)cc2Cl)cc1NC1CCCC1F (stereo partly shown) [Example 74] | – | 84 | – | – |
| 3.7 | CC(C)(O)[C@H](F)CNC(=O)c1cnc(Nc2ncc(C#N)cc2Cl)cc1NC1CCCC1O (stereo partly shown) [Example 78] | – | 64 | – | – |
| 3 | CC(C)(O)[C@H](F)CNC(=O)c1cnc(Nc2ncc(C#N)cc2F)cc1NC1CCC(F)C1 (stereo partly shown) [Example 82] | – | 105 | – | – |
| 3.5 | CC(C)(O)[C@H](F)CNC(=O)c1cnc(Nc2ncc(C#N)cn2)cc1NC1CCC(F)C1 (stereo partly shown) [Example 87] | – | 197 | – | – |
| 5.4 | CC(C)(O)[C@H](F)CNC(=O)c1cnc(Nc2ncc(C#N)cn2)cc1NC1CCC(F)C1 (stereo partly shown) [Example 88] | – | 266 | – | – |
| 13.7 | CC(C)(O)[C@H](F)CNC(=O)c1cnc(Nc2ncc(F)cc2F)cc1NC1CCCOC1 (stereo partly shown) [Example 109] | – | 350 | – | – |
| 15.7 | CC(C)(O)[C@H](F)CNC(=O)c1cnc(Nc2ncc(F)cc2F)cc1NC1CCCOC1 (stereo partly shown) [Example 110] | – | 705 | – | – |
| 4.5 | CC(C)(O)[C@H](F)CNC(=O)c1cnc(Nc2ncc(C#N)cc2F)cc1NC1CCC(F)C1 (stereo partly shown) [Example 115] | – | 65 | – | – |
| – | CC(C)Nc1cc(Nc2ncc(C#N)cc2F)ncc1C(=O)NC1CCC(C(C)(O)C2CC2)CC1 (stereo not shown) [Example 145] | – | 275 | 4.3 | – |
| 2 | CC(C)(O)[C@H](F)CNC(=O)c1cnc(Nc2ncc(C#N)cc2Cl)cc1NC1CCC(F)C1 (stereo partly shown) [Example 157] | – | – | – | 71 |
| 2.3 | CC(C)(O)[C@H](F)CNC(=O)c1cnc(Nc2ncc(C#N)cc2Cl)cc1NC1CCC(F)C1 (stereo partly shown) [Example 158] | – | 102 | – | – |
| – | CC(F)[C@@H](C)Nc1cc(Nc2ncc(C#N)cc2Cl)ncc1C(=O)NC[C@@H](F)C(C)(C)O (stereo partly shown) [Example 159] | – | 130 | – | – |
| – | CC(F)[C@@H](C)Nc1cc(Nc2ncc(C#N)cc2Cl)ncc1C(=O)NC[C@@H](F)C(C)(C)O (stereo partly shown) [Example 160] | – | 846 | – | – |
| 8.2 | CC(C)Nc1cc(Nc2ncc(C#N)cc2F)ncc1C(=O)NC1CCC(O)(c2ccnn2C)CC1 (stereo not shown) [Example 166] | – | – | – | – |
| 13 | CC(C)Nc1cc(Nc2ncc(C#N)cc2F)ncc1C(=O)NC1CCC(O)(c2nccs2)CC1 (stereo not shown) [Example 167] | – | – | – | – |
